From patent US20130198900A1, “"THIAMINE PYROPHOSPHATE (TPP) RIBOSWITCH MUTANTS PRODUCING VITAMIN B1 ENRICHED FOOD AND FEED CROPS"” (BEN-GURION UNIVERSITY OF THE NEGEV, priority 2010, published 2013)

How the values were obtained:
[1] = tested on: AtTHIC promoter and AtTHIC 3' UTR (TPP riboswitch); test: Dual reporter assay (RFP under AtTHIC promoter, YFP fused to AtTHIC 3' UTR) with exogenous TPP; assay type: in vivo, Arabidopsis
Protocol: Arabidopsis thaliana plants (ecotype Columbia, Col-0) were grown on soil in climate rooms (22° C.; 70% humidity; 16/8 hr light/dark for long day conditions and 10/14 hr light/dark for short day conditions). The Atthi1 and Atthic mutants were obtained from the European Arabidopsis Stock Center (NASC; http://arabidopsis.info/; stock ID: N3375; salk—011114 respectively). For experiments involving TPP addition, plants were grown for 14 days in petri dishes on MS media (basal salt mixture; Duchefa, Haarlem, The Netherlands) with 1% sucrose and 1% agar, to which TPP (Sigma, Cat. no. C8754, water soluble) was added up to the indicated concentration.
In order to determine whether the diurnal changes of AtTHIC expression are caused by the light or by the circadian clock, Arabidopsis plants were subjected to a circadian assay (see material and methods above). […] In the growth conditions used herein, the transcripts reached their highest expression level at the beginning of the dark period and their lowest expression level shortly after the beginning of the light period. […] To separate between these two modes of gene control, a dual reporter assay was developed, allowing observing the in vivo activity of both elements. Expression of one reporter gene, YELLOW FLUORESCENT PROTEIN(YFP) was under the control of a constitutive promoter (CaMV-35S) and fused to the AtTHIC 3′ UTR. A second reporter gene, RED FLUORESCENT PROTEIN(RFP) was placed under the regulation of the native AtTHIC promoter and fused to the NOS terminator (FIG. 4). These two reporters were introduced into the Arabidopsis wild type (wt) and thi1 mutant (deficient in thiamine biosynthesis), and their expression was monitored under various conditions. Wild type plants harboring this double reporter genes system were subjected to a circadian assay.
The expression level of the above-described reporter genes (YFP and RFP) in fully grown plants was also determined. […]

thiamine biosynthesis = test: Bacimethrin treatment of wild type plants, thiamine and TPP levels by HPLC; assay type: in vivo, Arabidopsis; conditions: 1 mM in growth medium, wild type plants (FIG. 26)
Protocol: Bacimethrin is a naturally occurring thiamine anti-metabolite. It is converted to 2′-methoxy-thiamine pyrophosphate by the thiamine biosynthetic enzymes at a rate that is 6 times faster than the rate of conversion of the natural substrate HMP to thiamine pyrophosphate (Reddick J J et al., 2001. Bioorg Med Chem Lett 11, 2245-2248). Since bacimethrin is a thiamine biosynthesis inhibitor in bacteria, its potency in plants was examined.
Samples (100 mg) were harvested from three weeks old plants grown in short day conditions at the end of the light period, and immediately frozen in liquid nitrogen. The plant samples were then grinded followed by the addition of 400 μl of 0.1M HCl, and sonicated in a water bath for 30 min. The resulting extracts were centrifuged at 14,000 rpm (in a regular bench centrifuge) for 10 min. […] Thiochrome derivatives of thiamine, TMP, and TPP were detected by fluorescence at excitation 370 nm and emission 430 nm. Different concentrations of thiamine, thiamine monophosphate (TMP) and thiamine pyrophosphate (TPP) standards were analyzed using the same extraction procedure and chromatographic conditions. […] For quantification of the samples, the peak areas of the samples were compared to the corresponding standard curve.

[2] = tested on: thiamine biosynthetic enzymes; conditions: Reddick et al., 2001; cited from earlier work
AtTHIC gene = test: AtTHIC transcript levels (qPCR) under bacimethrin treatment in wt, upf1 and upf3 plants; assay type: in vivo, Arabidopsis; conditions: 1 mM bacimethrin
Protocol: Quantitative Real Time PCR (qPCR) gene expression analysis was performed with three biological replicates using gene/variant-specific qPCR oligonucleotide-pairs, designed with Primer Express software (Applied Biosystems). AtUBIQUITIN C (At5g25760) was used as endogenous control for all analyses. Fixed amount of DNAse-treated total RNA was reverse transcribed using AMV Reverse Transcriptase (EurX Ltd., Poland). RT-PCR reactions were tracked on an ABI 7300 instrument (Applied Biosystems) using the PlatinumR SYBR SuperMix (Invitrogen). Each sample was PCR-amplified from the same amount of cDNA template in triplicate reactions. Following an initial step in the thermal cycler for 10 min at 95° C., PCR amplification proceeded for 40 cycles of 15 s at 95° C. and 60 s at 60° C., and completed by melting curve analysis to confirm specificity of PCR products. The baseline and threshold values were adjusted according to manufacturer's instructions.
Given the importance of the AtTHIC gene for thiamine biosynthesis, its mode of regulation, particularly the nature of the high turnover of the intron-spliced variant compared to the intron-retained variant was further examined. Since the spliced variant contains two introns in its 3′ UTR, its instability could be due to the activity of the non-sense mediated decay (NMD) pathway (Kertesz S et al., 2006. Nucleic Acids Res 34, 6147-6157). Thus, the level of this transcript was measured in the background of upf1 and upf3 mutants of Arabidopsis affected in the NMD pathway (Arciga-Reyes L et al., 2006. Plant J 47, 480-489). Transcript level was examined in both normal and low TPP concentrations (FIG. 9). Lowering the plant endogenous TPP levels in these experiments was obtained using 1 mM bacimethrin, an anti-metabolite that inhibits thiamine production (Reddick et al., 2001; ibid). In wt plants as well as in the upf1 and upf3 mutants, bacimethrin treatment (preventing thiamine accumulation) caused the upregulation of the total AtTHIC transcript and of its intron-retention variant (FIGS. 9A and 9B, respectively). […] Thus, the accumulation of this transcript in the upf mutants can be explained by an increase in its stability since the NMD trans-factors are missing. It should also be noticed, that due to the accumulation of the intron-spliced variant under bacimethrin treatment, the total AtTHIC transcripts are more abundant in the upf mutants.

SMILES | RFP expression directed by AtTHIC promoter ([1]; Atthi1 mutant plants) | YFP expression regulated by AtTHIC 3' UTR ([1]; Atthi1 mutant plants) | reporter gene expression (RFP and YFP) ([1]; wt plants with double reporter gene system, increasing TPP concentrations) | TPP levels (thiamine biosynthesis) | thiamine levels (thiamine biosynthesis) | rate of conversion to 2'-methoxy-thiamine pyrophosphate relative to conversion of natural substrate HMP to thiamine pyrophosphate [2] | AtTHIC intron-spliced variant transcript (AtTHIC gene; upf1 and upf3 mutants (FIG. 9C)) | AtTHIC intron-spliced variant transcript (AtTHIC gene; wt plants (FIG. 9C)) | total AtTHIC transcript (AtTHIC gene; wt plants and upf1, upf3 mutants (FIG. 9A)) | AtTHIC intron-retention variant transcript (AtTHIC gene; wt plants and upf1, upf3 mutants (FIG. 9B))
Cc1ncc(C[n+]2csc(CCO[P@](=O)(O)OP(=O)(O)O)c2C)c(N)n1 [TPP, thiamine pyrophosphate] | did not respond | regulated YFP expression in a TPP dependent manner | Only slight changes |  |  |  |  |  |  | 
COc1ncc(CO)c(N)n1 [bacimethrin] |  |  |  | reduced | increased | 6 times faster | did not decrease | down-regulation | upregulation | upregulation
